# Reference: PubChem BioAssay AID330 (DTP/NCI, 2004)
# Inconclusive results and toxic doses are left out.
# System: P388 leukemia ip, CD2F1 mice, survival T/C
# Assay: NCI In Vivo Anticancer Drug Screen. Data for tumor model P388 Leukemia (intraperitoneal) in CD2F1 (CDF1) mice
# Conditions: endpoint: median survival time, higher = longer survival
# In short: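 Mice carrying the transplanted tumor received test compound or vehicle. Survival was recorded in each group, and the value is the treated-group measurement divided by that of the vehicle-treated control group.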
# [1] = dose: 50.0 mg/kg/injection, schedule: Q01DX005 (ip), vehicle: Klucel (hydroxypropylcellulose) (HPC)
# [2] = dose: 100.0 mg/kg/injection, schedule: Q01DX005 (ip), vehicle: Klucel (hydroxypropylcellulose) (HPC)
# [3] = dose: 200.0 mg/kg/injection, schedule: Q01DX005 (ip), vehicle: Klucel (hydroxypropylcellulose) (HPC)
# [4] = dose: 100.0 mg/kg/injection, schedule: Q01DX001 (ip), vehicle: Klucel (hydroxypropylcellulose) (HPC)
# [5] = dose: 200.0 mg/kg/injection, schedule: Q01DX001 (ip), vehicle: Klucel (hydroxypropylcellulose) (HPC)
# [6] = dose: 50.0 mg/kg/injection, schedule: Q01DX009 (ip), vehicle: saline with Tween-80
# [7] = dose: 100.0 mg/kg/injection, schedule: Q01DX009 (ip), vehicle: saline with Tween-80
# [8] = dose: 200.0 mg/kg/injection, schedule: Q01DX009 (ip), vehicle: saline with Tween-80
# [9] = dose: 200.0 mg/kg/injection, schedule: Q01DX009 (ip), vehicle: saline
# [10] = dose: 100.0 mg/kg/injection, schedule: Q04DX002 (ip), vehicle: saline with Tween-80
# [11] = dose: 200.0 mg/kg/injection, schedule: Q04DX002 (ip), vehicle: saline with Tween-80
# [12] = dose: 400.0 mg/kg/injection, schedule: Q04DX002 (ip), vehicle: saline with Tween-80
compound,measurement,setting,value
Cc1ccc(C(O)(c2ccc(C)cc2)C2(O)CCN(C)CC2)cc1,T/C,[1],107 % of control
same,T/C,[2],97 % of control
same,T/C,[3],92 % of control
COc1ccc(N=Cc2ccc(C(N)=S)cc2)cc1,T/C,"dose: 50.0 mg/kg/injection, schedule: Q01DX001 (ip), vehicle: Klucel (hydroxypropylcellulose) (HPC)",107 % of control
same,T/C,[4],102 % of control
same,T/C,[5],98 % of control
O=C(O)C(Cl)(c1ccccc1)C(Cl)c1ccccc1 (stereo not given),T/C,[6],104 % of control
same,T/C,[7],95 % of control
same,T/C,[8],100 % of control
CN(C)CCNC(=Cc1ccc2ccccc2[n+]1C)NCCN(C)C,T/C,"dose: 30.0 mg/kg/injection, schedule: Q01DX005 (ip), vehicle: saline",97 % of control
same,T/C,"dose: 60.0 mg/kg/injection, schedule: Q01DX005 (ip), vehicle: saline",101 % of control
CC(=O)C(=CN(C)c1ccc([N+](=O)[O-])cc1)C(C)=O,T/C,"dose: 6.25 mg/kg/injection, schedule: Q01DX009 (ip), vehicle: saline with Tween-80",111 % of control
same,T/C,"dose: 12.5 mg/kg/injection, schedule: Q01DX009 (ip), vehicle: saline with Tween-80",92 % of control
same,T/C,"dose: 25.0 mg/kg/injection, schedule: Q01DX009 (ip), vehicle: saline with Tween-80",100 % of control
same,T/C,"dose: 100.0 mg/kg/injection, schedule: Q01DX009 (ip), vehicle: saline",91 % of control
same,T/C,[9],91 % of control
O=[N+]([O-])c1cc2c(ccc3ccccc32)o1,T/C,[1],102 % of control
same,T/C,[2],103 % of control
same,T/C,[3],117 % of control
CC12CCC(C/C1=N\[N+](=O)[O-])C2(C)C (stereo not given),T/C,"dose: 12.5 mg/kg/injection, schedule: Q01DX009 (ip), vehicle: suspension in saline",96 % of control
same,T/C,"dose: 25.0 mg/kg/injection, schedule: Q01DX009 (ip), vehicle: suspension in saline",97 % of control
same,T/C,"dose: 50.0 mg/kg/injection, schedule: Q01DX009 (ip), vehicle: saline",100 % of control
same,T/C,"dose: 50.0 mg/kg/injection, schedule: Q01DX009 (ip), vehicle: suspension in saline",97 % of control
same,T/C,[9],90 % of control
C[C@]12CC[C@@H]3c4ccc(OC(=O)Cc5ccc(N(CCCl)CCCl)cc5)cc4CC[C@H]3[C@@H]1CC[C@@H]2OC(=O)Cc1ccc(N(CCCl)CCCl)cc1,T/C,"dose: 100.0 mg/kg/injection, schedule: Q04DX003 (ip), vehicle: saline with Tween-80",100 % of control
same,T/C,"dose: 200.0 mg/kg/injection, schedule: Q04DX003 (ip), vehicle: saline with Tween-80",120 % of control
same,T/C,"dose: 264.0 mg/kg/injection, schedule: Q04DX003 (ip), vehicle: saline with Tween-80",109 % of control
same,T/C,"dose: 400.0 mg/kg/injection, schedule: Q04DX003 (ip), vehicle: saline with Tween-80",113 % of control
same,T/C,"dose: 600.0 mg/kg/injection, schedule: Q04DX003 (ip), vehicle: saline with Tween-80",154 % of control
O=[N+]([O-])c1ccc2c(c1)sc1cc([N+](=O)[O-])c(Br)cc12,T/C,[6],104 % of control
same,T/C,[7],102 % of control
same,T/C,[8],112 % of control
same,T/C,"dose: 400.0 mg/kg/injection, schedule: Q01DX009 (ip), vehicle: saline with Tween-80",103 % of control
CC(C)(C)OP(=S)(OC(C)(C)C)OC(C)(C)C,T/C,[10],96 % of control
same,T/C,[11],108 % of control
same,T/C,[12],106 % of control
C=C1CCC2C(OC(=O)C2(COC(C)=O)OC(C)=O)C2C(=C)C(OC(C)=O)CC12 (stereo not given),T/C,"dose: 11.25 mg/kg/injection, schedule: Q01DX005 (ip), vehicle: Klucel (hydroxypropylcellulose) (HPC)",100 % of control
same,T/C,"dose: 22.5 mg/kg/injection, schedule: Q01DX005 (ip), vehicle: Klucel (hydroxypropylcellulose) (HPC)",97 % of control
same,T/C,"dose: 45.0 mg/kg/injection, schedule: Q01DX005 (ip), vehicle: Klucel (hydroxypropylcellulose) (HPC)",103 % of control
same,T/C,"dose: 90.0 mg/kg/injection, schedule: Q01DX005 (ip), vehicle: Klucel (hydroxypropylcellulose) (HPC)",104 % of control
same,T/C,"dose: 180.0 mg/kg/injection, schedule: Q01DX005 (ip), vehicle: Klucel (hydroxypropylcellulose) (HPC)",99 % of control
OCCn1nc2c(c1-c1ccncc1)CCCc1ccccc1-2,T/C,[10],97 % of control
same,T/C,[11],94 % of control
same,T/C,[12],94 % of control
CC1C(O)C2(Oc3cc4c(c5c3[C@@H](CC5O)[C@H]2C)CCC2Cc3nc5c(nc3C[C@@]42C)CC2CCC3C4=C[C@H]6O[C@@]7(O[C@@](C)(CO)C[C@@H]7O)C(C)[C@@]6(O)[C@]4(C)[C@@H](O)CC3[C@]2(C)C5)OC1(C)C (stereo not given in full),T/C,"dose: 12.5 micrograms/kg/injection, schedule: Q01DX009 (ip), vehicle: saline + alcohol",107 % of control
same,T/C,"dose: 25.0 micrograms/kg/injection, schedule: Q01DX009 (ip), vehicle: saline + alcohol",100 % of control
same,T/C,"dose: 50.0 micrograms/kg/injection, schedule: Q01DX009 (ip), vehicle: saline + alcohol",107 % of control
same,T/C,"dose: 100.0 micrograms/kg/injection, schedule: Q01DX009 (ip), vehicle: saline + alcohol",109 % of control
c1ccc(-c2cc(-c3cc(-c4ccccn4)[nH]n3)n[nH]2)nc1,T/C,"dose: 60.0 mg/kg/injection, schedule: Q01DX005 (ip), vehicle: saline + Tween-80 + alcohol",91 % of control
same,T/C,"dose: 120.0 mg/kg/injection, schedule: Q01DX005 (ip), vehicle: saline + Tween-80 + alcohol",94 % of control
same,T/C,"dose: 240.0 mg/kg/injection, schedule: Q01DX005 (ip), vehicle: saline + Tween-80 + alcohol",104 % of control
Cn1c(Cl)c(/C=C(/NC(=O)c2ccccc2)C(=O)O)c2ccccc21,T/C,[4],102 % of control
same,T/C,[5],93 % of control
same,T/C,"dose: 400.0 mg/kg/injection, schedule: Q01DX001 (ip), vehicle: Klucel (hydroxypropylcellulose) (HPC)",93 % of control
C=C1C(=O)C23C(OC(=O)CCCCC)C1CCC2C12COC3(O)C(O)C1C(C)(C)CCC2O (stereo not given),T/C,"dose: 3.75 mg/kg/injection, schedule: Q01DX009 (ip), vehicle: saline with Tween-80",102 % of control
same,T/C,"dose: 7.5 mg/kg/injection, schedule: Q01DX009 (ip), vehicle: saline with Tween-80",105 % of control
same,T/C,"dose: 15.0 mg/kg/injection, schedule: Q01DX009 (ip), vehicle: saline with Tween-80",113 % of control
same,T/C,"dose: 30.0 mg/kg/injection, schedule: Q01DX009 (ip), vehicle: saline with Tween-80",104 % of control
c1ccc2c3c(ccc2c1)OCCOc1ccc2ccccc2c1-3,T/C,[10],99 % of control
same,T/C,[11],91 % of control
same,T/C,[12],90 % of control
Nc1c(S(=O)(=O)O)cc(Br)c2c1C(=O)c1ccccc1C2=O,T/C,"dose: 50.0 mg/kg/injection, schedule: Q01DX005 (ip), vehicle: saline with Tween-80",98 % of control
same,T/C,"dose: 100.0 mg/kg/injection, schedule: Q01DX005 (ip), vehicle: saline with Tween-80",98 % of control
same,T/C,"dose: 200.0 mg/kg/injection, schedule: Q01DX005 (ip), vehicle: saline with Tween-80",93 % of control
N#Cc1cccc(CN2CCCNCC2)c1,T/C,"dose: 6.25 mg/kg/injection, schedule: Q01DX009 (ip), vehicle: water",94 % of control
same,T/C,"dose: 12.5 mg/kg/injection, schedule: Q01DX009 (ip), vehicle: water",94 % of control
same,T/C,"dose: 25.0 mg/kg/injection, schedule: Q01DX009 (ip), vehicle: water",103 % of control
same,T/C,"dose: 50.0 mg/kg/injection, schedule: Q01DX009 (ip), vehicle: water",109 % of control
same,T/C,"dose: 100.0 mg/kg/injection, schedule: Q01DX009 (ip), vehicle: water",105 % of control
N#CCCN(C(=S)Nc1ccc(F)cc1)N1CCCCCC1,T/C,"dose: 100.0 mg/kg/injection, schedule: Q04DX003 (ip), vehicle: saline",100 % of control
same,T/C,"dose: 200.0 mg/kg/injection, schedule: Q04DX003 (ip), vehicle: saline",107 % of control
same,T/C,"dose: 400.0 mg/kg/injection, schedule: Q04DX003 (ip), vehicle: saline",98 % of control
Cn1nc(-c2cccc(F)c2)[n+](C)n1,T/C,"dose: 50.0 mg/kg/injection, schedule: Q01DX005 (ip), vehicle: saline",102 % of control
same,T/C,"dose: 100.0 mg/kg/injection, schedule: Q01DX005 (ip), vehicle: saline",98 % of control
CC(=O)C(C)(C)Cc1cc(C(C)(C)CC=O)on1,T/C,"dose: 60.0 mg/kg/injection, schedule: Q01DX005 (ip), vehicle: saline with Tween-80",107 % of control
same,T/C,"dose: 120.0 mg/kg/injection, schedule: Q01DX005 (ip), vehicle: saline with Tween-80",100 % of control
same,T/C,"dose: 240.0 mg/kg/injection, schedule: Q01DX005 (ip), vehicle: saline with Tween-80",108 % of control
NC(=O)c1cncc(C(=O)O)c1,T/C,[1],106 % of control
same,T/C,[2],101 % of control
same,T/C,[3],100 % of control
